Laboratory results published in the NIST ThermoML archive (doi:10.1021/je2012633).

Assays:
[1] = xn = mol fraction of the nth substance listed; details: 101 kPa, Liquid, Vibrating tube method
[2] = 101 kPa, Liquid, Vibrating tube method

O [water] + CCCCCCOS(=O)(=O)[O-].CC[n+]1ccn(C)c1
Details | mass density [kg/m3]
[1], 308.15 K, x2 = 0 | 994.1

CCCCOS(=O)(=O)[O-].CC[n+]1ccn(C)c1 [3-ethyl-1-methylimidazolium butyl sulfate] + O
mass density [kg/m3], [1]
Details | 288.15 K | 298.15 K | 308.15 K | 318.15 K
x1 = 0.0526 | 1081 | 1075.8 | 1069.6 | 1063.2
x1 = 0.0987 | 1114.3 | 1107.5 | 1100.5 | 1093.4
x1 = 0.2007 | 1146.1 | 1139.1 | 1131.9 | 1124.7
x1 = 0.2973 | 1159.3 | 1152.3 | 1145.3 | 1138.3
x1 = 0.3957 | 1167.2 | 1160.2 | 1153.2 | 1146.3
x1 = 0.4866 | 1171.7 | 1164.8 | 1158 | 1151.1
x1 = 0.5868 | 1175 | 1168.4 | 1161.5 | 1154.7
x1 = 0.6909 | 1177.9 | 1171.1 | 1164.3 | 1157.6
x1 = 0.7872 | 1179.6 | 1172.9 | 1166.2 | 1159.5
x1 = 0.8922 | 1181.4 | 1174.5 | 1167.9 | 1161.2
x1 = 0.9416 | 1181.8 | 1175 | 1168.3 | 1161.7
x1 = 1 | 1182.5 | 1175.7 | 1169 | 1162.4

CCO [ethanol]
[2]
Details | mass density [kg/m3]
288.15 K | 794.4
298.15 K | 785.8
308.15 K | 777.1
318.15 K | 768.3

CCCCCCOS(=O)(=O)[O-].CC[n+]1ccn(C)c1 [3-ethyl-1-methyl-1H-imidazolium hexyl sulfate]
[2]
Details | mass density [kg/m3]
288.15 K | 1136.6
298.15 K | 1129.6
308.15 K | 1123.1
318.15 K | 1116.6

CCCCCCOS(=O)(=O)[O-].CC[n+]1ccn(C)c1 [3-ethyl-1-methyl-1H-imidazolium hexyl sulfate] + O
mass density [kg/m3], [1]
Details | x1 = 0.0501 | x1 = 0.0965 | x1 = 0.2075 | x1 = 0.3982 | x1 = 0.582 | x1 = 0.7243 | x1 = 0.7976 | x1 = 0.9346 | x1 = 1
288.15 K | 1061.4 | 1086.5 | 1111.4 | 1125.8 | 1131.2 | 1133.5 | 1134.5 | 1135.8 | 1136.6
298.15 K | 1056 | 1080.2 | 1104.8 | 1119 | 1124.5 | 1126.8 | 1127.7 | 1129 | 1129.6
308.15 K | 1050.2 | 1073.7 | 1097.8 | 1112.2 | 1117.8 | 1120.3 | 1121.2 | 1122.3 | 1123.1
318.15 K | 1044.1 | 1066.9 | 1090.8 | 1105.4 | 1111.2 | 1113.8 | 1114.7 | 1115.8 | 1116.6

CCOS(=O)(=O)[O-].CCn1cc[n+](C)c1 [1-ethyl-3-methylimidazolium ethyl sulfate] + O
mass density [kg/m3], [1]
Details | 288.15 K | 298.15 K | 308.15 K | 318.15 K
x1 = 0.0319 | 1064.5 | 1059.9 | 1054.4 | 1048.4
x1 = 0.07 | 1114.1 | 1108 | 1101.8 | 1095.1
x1 = 0.1022 | 1141.9 | 1135.3 | 1128.5 | 1121.5
x1 = 0.1961 | 1186.1 | 1178.9 | 1171.8 | 1164.6
x1 = 0.2988 | 1208.5 | 1201.4 | 1194.3 | 1187.2
x1 = 0.395 | 1220.4 | 1213.4 | 1206.3 | 1199.3
x1 = 0.4939 | 1228.4 | 1221.4 | 1214.4 | 1207.4
x1 = 0.5829 | 1233.3 | 1226.4 | 1219.4 | 1212.5
x1 = 0.6798 | 1237.1 | 1230.2 | 1223.4 | 1216.6
x1 = 0.7975 | 1240.8 | 1233.9 | 1227.1 | 1220.3
x1 = 0.8726 | 1242.6 | 1235.8 | 1229 | 1222.3
x1 = 1 | 1245.3 | 1238.3 | 1231.6 | 1224.9

CCCCOS(=O)(=O)[O-].CC[n+]1ccn(C)c1 [3-ethyl-1-methylimidazolium butyl sulfate] + CCO
mass density [kg/m3], [1]
Details | 288.15 K | 298.15 K | 308.15 K | 318.15 K
x1 = 0.0498 | 864.5 | 856.2 | 847.9 | 839.5
x1 = 0.0989 | 915.1 | 907.1 | 898.9 | 890.9
x1 = 0.1938 | 987 | 979.3 | 971.6 | 963.8
x1 = 0.2904 | 1037.4 | 1030 | 1022.4 | 1014.8
x1 = 0.3812 | 1072.1 | 1064.8 | 1057.6 | 1050.4
x1 = 0.4691 | 1098.2 | 1091 | 1083.9 | 1076.9
x1 = 0.4993 | 1105.9 | 1098.8 | 1091.1 | 1083.7
x1 = 0.5699 | 1122 | 1114.9 | 1107.9 | 1101
x1 = 0.6866 | 1143.7 | 1136.7 | 1129.7 | 1122.8
x1 = 0.7858 | 1158.4 | 1151.6 | 1144.7 | 1138
x1 = 0.8794 | 1169.9 | 1163.1 | 1156.3 | 1149.6
x1 = 1 | 1182.5 | 1175.7 | 1169 | 1162.4

CCOS(=O)(=O)[O-].CCn1cc[n+](C)c1 [1-ethyl-3-methylimidazolium ethyl sulfate]
[2]
Details | mass density [kg/m3]
288.15 K | 1245.3
298.15 K | 1238.3
308.15 K | 1231.6
318.15 K | 1224.9

CCOS(=O)(=O)[O-].CCn1cc[n+](C)c1 [1-ethyl-3-methylimidazolium ethyl sulfate] + CCO
mass density [kg/m3], [1]
Details | 288.15 K | 298.15 K | 308.15 K | 318.15 K
x1 = 0.0494 | 864.9 | 856.6 | 848.1 | 839.7
x1 = 0.1233 | 943.6 | 935.6 | 927.6 | 919.5
x1 = 0.2469 | 1035.3 | 1027.6 | 1019.9 | 1012.3
x1 = 0.3485 | 1088.4 | 1080.9 | 1073.4 | 1066
x1 = 0.4727 | 1136.8 | 1129.5 | 1122.2 | 1115
x1 = 0.5667 | 1164.9 | 1157.7 | 1150.6 | 1143.5
x1 = 0.6483 | 1185.3 | 1178.2 | 1171.2 | 1164.2
x1 = 0.7421 | 1205.3 | 1198.3 | 1191.3 | 1184.4
x1 = 0.827 | 1220.5 | 1213.8 | 1206.8 | 1200
x1 = 0.9211 | 1234.8 | 1227.9 | 1221.1 | 1214.3
x1 = 1 | 1245.3 | 1238.3 | 1231.6 | 1224.9

CCCCOS(=O)(=O)[O-].CC[n+]1ccn(C)c1 [3-ethyl-1-methylimidazolium butyl sulfate]
[2]
Details | mass density [kg/m3]
288.15 K | 1182.5
298.15 K | 1175.7
308.15 K | 1169
318.15 K | 1162.4

O [water] + CCOS(=O)(=O)[O-].CCn1cc[n+](C)c1
Details | mass density [kg/m3]
[1], 308.15 K, x2 = 0 | 994.1

CCCCCCOS(=O)(=O)[O-].CC[n+]1ccn(C)c1 [3-ethyl-1-methyl-1H-imidazolium hexyl sulfate] + CCO
mass density [kg/m3], [1]
Details | x1 = 0.0977 | x1 = 0.2202 | x1 = 0.3246 | x1 = 0.4377 | x1 = 0.4947 | x1 = 0.6214 | x1 = 0.7252 | x1 = 0.7455 | x1 = 0.9063 | x1 = 1
288.15 K | 911.2 | 990 | 1031.7 | 1063.2 | 1075.5 | 1097.3 | 1110.9 | 1113.2 | 1128.5 | 1136.6
298.15 K | 903.4 | 982.4 | 1024.3 | 1056 | 1068.4 | 1090.4 | 1104.1 | 1106.4 | 1121.8 | 1129.6
308.15 K | 895.3 | 974.9 | 1017.1 | 1048.9 | 1061.4 | 1083.5 | 1097.4 | 1099.7 | 1115.2 | 1123.1
318.15 K | 887.4 | 967.4 | 1009.8 | 1042 | 1054.4 | 1076.8 | 1090.7 | 1093 | 1108.8 | 1116.6

CCCCCCCCOS(=O)(=O)[O-].CCn1cc[n+](C)c1 [1-ethyl-3-methylimidazolium octyl sulfate]
[2]
Details | mass density [kg/m3]
288.15 K | 1100.7
298.15 K | 1093.8
308.15 K | 1087
318.15 K | 1080.5

CCCCCCCCOS(=O)(=O)[O-].CCn1cc[n+](C)c1 [1-ethyl-3-methylimidazolium octyl sulfate] + O
mass density [kg/m3], [1]
Details | x1 = 0.0053 | x1 = 0.1002 | x1 = 0.3923 | x1 = 0.5963 | x1 = 0.7373 | x1 = 0.7747 | x1 = 0.8545 | x1 = 0.9371 | x1 = 1
298.15 K | 1005.3 | 1060.6 | 1086.3 | 1090.5 | 1092.1 | 1092.4 | 1093 | 1093.5 | 1093.8
308.15 K | 1001.8 | 1054 | 1079.6 | 1083.8 | 1085.5 | 1085.7 | 1086.4 | 1086.9 | 1087
318.15 K | 997.3 | 1047.4 | 1072.9 | 1077.2 | 1079.1 | 1079.2 | 1079.9 | 1080.4 | 1080.5

CCCCCCCCOS(=O)(=O)[O-].CCn1cc[n+](C)c1 [1-ethyl-3-methylimidazolium octyl sulfate] + CCO
mass density [kg/m3], [1]
Details | x1 = 0.098 | x1 = 0.1901 | x1 = 0.2985 | x1 = 0.3955 | x1 = 0.4964 | x1 = 0.5975 | x1 = 0.6844 | x1 = 0.792 | x1 = 0.9047 | x1 = 1
288.15 K | 906.4 | 964.1 | 1006.3 | 1031.6 | 1050.9 | 1065.6 | 1075.6 | 1085.7 | 1094.4 | 1100.7
298.15 K | 898.5 | 956.5 | 998.9 | 1024.4 | 1043.9 | 1058.7 | 1068.8 | 1078.9 | 1087.5 | 1093.8
308.15 K | 890.7 | 949 | 991.8 | 1017.4 | 1037 | 1051.9 | 1062.1 | 1072.3 | 1081 | 1087
318.15 K | 882.8 | 941.4 | 984.4 | 1010.3 | 1030.1 | 1045.2 | 1055.4 | 1065.8 | 1074.4 | 1080.5

CCO [ethanol] + CCOS(=O)(=O)[O-].CCn1cc[n+](C)c1
[1], x2 = 0
Details | mass density [kg/m3]
288.15 K | 794.4
298.15 K | 785.8
308.15 K | 777.1
318.15 K | 768.3
